Measured values taken from patent US8609674B2, “Potassium channel modulators” (AbbVie Inc., priority 2010, dated 2013).

Assays:
Format in all cases: cell-based
[1] = molecular target: T1, human KCNQ2 and KCNQ3 subunits (KCNQ2/3 channels) (Homo sapiens, UniProt O43525+O43526); assay: KCNQ2/3 thallium influx FLIPR assay (BTC-AM dye); conditions: for EC50: HEK293 cells stably expressing human KCNQ2 and KCNQ3, Tl+ influx; for Emax: maximum response relative to 10 μM retigabine (=100%), read-out: KCNQ2/3 Max. %
T1 construct: expressed in transfected cells; host or cells: HEK293
Experimental: The following example describes the assay that may be used to identify compounds that activate KCNQ2/3 channels.
HEK293 cells stably expressing human KCNQ2 and KCNQ3 subunits were seeded in 96-well, black-walled, clear-bottomed, poly-D-lysine coated plates (BD Biosciences, Bedford, Mass.) at a density of 1×10^5 cells per well 24 hours before the assay. On the assay day, BTC-AM dye (Invitrogen, Carlsbad, Calif.) was loaded into the cells by replacing the cell culture medium with 55 μL/well of 3 μg/ml dye in Dulbecco's Phosphate Buffered Saline (DPBS) (Invitrogen). Dye loading was allowed to proceed for 2 hours at room temperature and then cells were washed twice with 50 μL/well of assay buffer (in mM: 10 HEPES pH 7.3, 5 glucose, 140 Na-gluconate, 2.5 K-gluconate, 3.6 Ca-gluconate, 2 MgSO4, 0.1 Ouabain) to remove unloaded dye. Cells were incubated in 50 μL of assay buffer before loading onto a FLIPR system (Molecular Devices, Sunnyvale, Calif.). Various concentrations of compounds to be assayed were added to the cells in 50 μL of assay buffer and incubated for 4 minutes. The fluorescence signal was initiated by adding 100 μL of assay buffer containing 6 mM TlNO3 and 10 mM K2SO4. Fluors were excited using the 488-nm line of an argon laser and emission was filtered using a 540±30 nm bandpass filter. Fluorescent signals were recorded for 3 minutes. Sums of the responses over basal responses were plotted versus concentrations of test compounds to obtain an EC50 value and the points fit with a nonlinear regression curve using GraphPad Prism software (GraphPad Software Inc., San Diego, Calif.). EC50 values were calculated from the resulting sigmoidal dose-response curves. The maximum response for each test compound was determined relative to the response produced by 10 μM retigabine. The maximum response of retigabine at 10 μM was set at 100%.

human KCNQ4 = molecular target: T2, human KCNQ4 (Homo sapiens, UniProt P56696); assay: KCNQ4 thallium influx FLIPR TETRA assay; conditions: for EC50: HEK293 cells stably expressing human KCNQ4, Tl+ influx; for Emax: maximum response relative to 10 μM retigabine (=100%), read-out: KCNQ4 Max. %
T2 construct: expressed in transfected cells; host or cells: HEK293
Experimental: (§1) The following example describes the assay that may be used to identify compounds that activate KCNQ4 or KCNQ5 channels.
(§2) The assays were performed using a FLIPR^TETRA (Molecular Devices, Sunnyvale, Calif.) in 384-well format. HEK293 cells stably expressing human KCNQ4 or KCNQ5 were seeded in 384-well, black-walled, clear-bottomed, poly-D-lysine coated plates (Greiner Bio-One, Germany) at a density of 1.5×10^4 cells per well, 24 hours before the assay. On the assay day, BTC-AM dye was loaded into the cells by replacing the cell culture medium with 30 μL/well of 2.8 μM dye in DPBS. Dye loading was allowed to proceed for 2 hours at room temperature and then cells were washed once in 30 μL/well of assay buffer (in mM: 10 HEPES pH 7.3, 5 glucose, 140 Na-gluconate, 2.5 K-gluconate, 3.6 Ca-gluconate, 2 MgSO4, 0.1 Ouabain) to remove unloaded dye. Cells were incubated in 30 μL of assay buffer before loading onto a FLIPR^TETRA system. Compounds to be assayed were added to the cells as 4× of final concentration in 15 μL of assay buffer and incubated for 4 minutes at room temperature. The influx signal was initiated by adding 15 μL of assay buffer containing 4.2 mM TlNO3 and 7 mM K2SO4. Tl^+ influx signals were recorded for 3 minutes. Tl^+ influx signal was quantified as light unit changes after Tl^+ addition using the “SUM” statistic from the FLIPR^TETRA software. Sums of the responses over basal responses were plotted versus concentrations of test compounds to obtain an EC50 value and the points fit with a nonlinear regression curve using GraphPad Prism software (GraphPad Software Inc., San Diego, Calif.). EC50 values were calculated from the resulting sigmoidal dose-response curves. The maximum response for each test compound was determined relative to the response produced by 10 μM retigabine. The maximum response of retigabine at 10 μM was set at 100%.

human KCNQ5 = molecular target: T3, human KCNQ5 (Homo sapiens, UniProt Q9NR82); assay: KCNQ5 thallium influx FLIPR TETRA assay; conditions: for EC50: HEK293 cells stably expressing human KCNQ5, Tl+ influx; for Emax: maximum response relative to 10 μM retigabine (=100%), read-out: KCNQ5 Max. %
T3 construct: expressed in transfected cells; host or cells: HEK293
Experimental: as §1, §2

Compound	EC50 [1] [µM]	Emax [1] [%]	EC50 (human KCNQ4) [µM]	Emax (human KCNQ4) [%]	EC50 (human KCNQ5) [µM]	Emax (human KCNQ5) [%]
CC(C)c1nc2ccccc2c(=O)n1NC(=O)CC1CC2CC1C2 (racemic) [Example 22, (±)-2-(bicyclo[2.1.1]hex-2-yl)-N-[4-oxo-2-(propan-2-yl)quinazolin-3(4H)-yl]acetamide]	< 0.1	179	1 to 10	255	1 to 10	857
CC1(C)[C@H]2CC[C@@H](CC(=O)Nn3c(C4CC4)nc4cc(F)ccc4c3=O)[C@@H]1C2 [Example 3, N-(2-cyclopropyl-7-fluoro-4-oxoquinazolin-3(4H)-yl)-2-[(1S,2S,5S)-6,6-dimethylbicyclo[3.1.1]hept-2-yl]acetamide]	< 0.1	99	> 30	-2	> 30	36
CC1(C)[C@H]2CC[C@@H](CC(=O)Nn3c(C4CC4)nc4cc(C(F)(F)F)ccc4c3=O)[C@@H]1C2 [Example 4, N-[2-cyclopropyl-4-oxo-7-(trifluoromethyl)quinazolin-3(4H)-yl]-2-[(1S,2S,5S)-6,6-dimethylbicyclo[3.1.1]hept-2-yl]acetamide]	> 30	3	> 30	1	> 30	12
CCc1nc2sccc2c(=O)n1NC(=O)C[C@@H]1CC[C@H]2C[C@@H]1C2(C)C [Example 6, 2-[(1S,2S,5S)-6,6-dimethylbicyclo[3.1.1]hept-2-yl]-N-(2-ethyl-4-oxothieno[2,3-d]pyrimidin-3(4H)-yl)acetamide]	1 to 10	99	> 30	5	> 30	9
CC1(C)[C@H]2CC[C@@H](CC(=O)Nn3c(C(F)(F)F)nc4ccccc4c3=O)[C@@H]1C2 [Example 7, 2-[(1S,2S,5S)-6,6-dimethylbicyclo[3.1.1]hept-2-yl]-N-[4-oxo-2-(trifluoromethyl)quinazolin-3(4H)-yl]acetamide]	0.1 to 0.5	58	> 30	6	> 30	52
CC(C)c1nc2ccccc2c(=O)n1NC(=O)COC[C@@H]1CC[C@H]2C[C@@H]1C2(C)C [Example 8, 2-[(1S,2R,5S)-(6,6-dimethylbicyclo[3.1.1]hept-2-yl)methoxy]-N-[4-oxo-2-(propan-2-yl)quinazolin-3(4H)-yl]acetamide]	0.5 to 1	132	> 30	57	> 30	52
CC(SC[C@@H]1CC[C@H]2C[C@@H]1C2(C)C)C(=O)Nn1c(C(C)C)nc2ccccc2c1=O (stereo partly drawn) [Example 9, 2-({[(1S,2R,5S)-6,6-dimethylbicyclo[3.1.1]hept-2-yl]methyl}sulfanyl)-N-[4-oxo-2-(propan-2-yl)quinazolin-3(4H)-yl]propanamide]	0.1 to 0.5	49	> 30	23	> 30	49
CC(C)c1nc2ccccc2c(=O)n1NC(=O)COCC[C@@H]1CC[C@H]2C[C@@H]1C2(C)C [Example 10, 2-{2-[(1S,2S,5S)-6,6-dimethylbicyclo[3.1.1]hept-2-yl]ethoxy}-N-[4-oxo-2-(propan-2-yl)quinazolin-3(4H)-yl]acetamide]	1 to 10	121	> 30	122	> 30	335
CC(C)c1nc2ccccc2c(=O)n1NC(=O)CCSC[C@@H]1CC[C@H]2C[C@@H]1C2(C)C [Example 11, 3-({[(1S,2R,5S)-6,6-dimethylbicyclo[3.1.1]hept-2-yl]methyl}sulfanyl)-N-[4-oxo-2-(propan-2-yl)quinazolin-3(4H)-yl]propanamide]	0.1 to 0.5	123	1 to 10	293	> 30	714
CC(C)c1nc2ccccc2c(=O)n1NC(=O)CSC[C@@H]1CC[C@H]2C[C@@H]1C2(C)C [Example 12, 2-({[(1S,2R,5S)-6,6-dimethylbicyclo[3.1.1]hept-2-yl]methyl}sulfanyl)-N-[4-oxo-2-(propan-2-yl)quinazolin-3(4H)-yl]acetamide]	0.1 to 0.5	149	> 30	41	> 30	136
CC(C)c1nc2ccc(F)cc2c(=O)n1NC(=O)C[C@@H]1CC[C@H]2C[C@@H]1C2(C)C [Example 13, 2-[(1S,2S,5S)-6,6-dimethylbicyclo[3.1.1]hept-2-yl]-N-[6-fluoro-4-oxo-2-(propan-2-yl)quinazolin-3(4H)-yl]acetamide]	< 0.1	73	> 30	8	> 30	21
CC1(C)[C@H]2CC[C@@H](CC(=O)Nn3c(CC(F)(F)F)nc4ccccc4c3=O)[C@@H]1C2 [Example 14, 2-[(1S,2S,5S)-6,6-dimethylbicyclo[3.1.1]hept-2-yl]-N-[4-oxo-2-(2,2,2-trifluoroethyl)quinazolin-3(4H)-yl]acetamide]	< 0.1	105	> 30	27	> 30	-10
CC1(C)[C@H]2CC[C@@H](CC(=O)Nn3cnc4ccccc4c3=O)[C@@H]1C2 [Example 16, 2-[(1S,2S,5S)-6,6-dimethylbicyclo[3.1.1]hept-2-yl]-N-(4-oxoquinazolin-3(4H)-yl)acetamide]	1 to 10	144	> 30	6	> 30	13
Cc1nc2ccccc2c(=O)n1NC(=O)C[C@@H]1CC[C@H]2C[C@@H]1C2(C)C [Example 17, 2-[(1S,2S,5S)-6,6-dimethylbicyclo[3.1.1]hept-2-yl]-N-(2-methyl-4-oxoquinazolin-3(4H)-yl)acetamide]	1 to 10	97	> 30	3	> 30	14
CC(C)c1nc2ccc(Cl)cc2c(=O)n1NC(=O)C[C@@H]1CC[C@H]2C[C@@H]1C2(C)C [Example 18, N-[6-chloro-4-oxo-2-(propan-2-yl)quinazolin-3(4H)-yl]-2-[(1S,2S,5S)-6,6-dimethylbicyclo[3.1.1]hept-2-yl]acetamide]	> 30	8	> 30	4	> 30	19
CCN(CC)c1nc2ccccc2c(=O)n1NC(=O)C[C@@H]1CC[C@H]2C[C@@H]1C2(C)C [Example 19, N-[2-(diethylamino)-4-oxoquinazolin-3(4H)-yl]-2-[(1S,2S,5S)-6,6-dimethylbicyclo[3.1.1]hept-2-yl]acetamide]	0.1 to 0.5	28	> 30	8	> 30	5
